Source: article PMC8143291, “Cytotoxicity and Microbicidal Activity of Commonly Used Organic Solvents: A Comparative Study and Application to a Standardized Extract from Vaccinium macrocarpon” (Toxics, 2021)

What was measured:
[1] = test system: A-431 (non-melanoma epidermoid squamous skin carcinoma); assay: MTT dye-reduction cytotoxicity assay (ISO 10993-5); format: cell-based, human; conditions: solvent alone, n = 3; for MTC (maximum tolerated concentration): 72 h, at least 70% of cells viable
From the text: (§1) The cell lines utilized in this study included the human tumor lines A-375 (malignant melanoma) and A-431 (non-melanoma epidermoid squamous skin carcinoma) as well as the models for non-tumorigenic cells—HaCaT (immortalized human keratinocytes) and CCL-1^TM (transformed mouse fibroblasts, NCTC clone 929). The first three cell lines were obtained from CLS Cell Lines Service (GmbH, Eppelheim, Germany). CCL-1^TM was purchased from the American Type Culture Collection (ATCC, Manassas, VA, USA). Cells were maintained in a controlled environment—sterile cell culture flasks in a CO2 incubator Panasonic MCO-18AC (Panasonic Healthcare co., ltd, Oizumi-Machi, Japan) at 37 °C and a humidified atmosphere containing 5% CO2. CCL-1 was cultured in MEM with 10% heat-inactivated horse serum and 2 mM L-glutamine, and the cell culture medium for the rest of the cell lines was DMEM-HG with 4.5 g/L glucose with the addition of 10% heat-inactivated fetal bovine serum and 4 mM L-glutamine. Pen/strep (concentration of penicillin G sodium 10^5 Units/L and of streptomycin sulfate 100 mg/L) was added to both culture media. The cell lines were maintained as an adherent monolayer in a log phase. The cells were sub-cultivated about 1–3 times per week after the monolayer reached 80–90% confluence. The medium was removed from the flask, and the cell monolayer was washed with 3–5 mL PBS. The cells were incubated with 0.05% EDTA in PBS for 8–10 min, followed by the next step where all cell lines were subjected to enzyme cell detachment. HaCaT and CCL-1 monolayers were detached with 1 mL solution of trypsin/EDTA (0.1%/0.05% for HaCaT and 0.25% (w/v)/0.53 mM for CCL-1) and incubated for 2–5 min at 37 °C (for HaCaT) or at room temperature (for CCL-1 cells), whereas Accutase® was used for A-375 and A-431 lines. The incubation lasted until the separation and dispersion of the cells in the monolayer were observed using light microscopy. In the end, all cell lines were resuspended in 10 mL medium and centrifuged for 3 min at 300× g. The cell pellet was resuspended in fresh medium and sub-cultivated at a seeding density of 1.0 × 10^4 cells/cm^2.
(§2) The MTT test was performed in order to determine the median inhibitory (IC50) and MTC concentrations of the solvents and PAC according to Annex C, ISO 10993-5 [2, 21]. Briefly, 100 µL of the cell suspension (1 × 10^5 cells/mL) were seeded per well in 96-well plates with a flat bottom. The cells were incubated for 24 h, allowing them to enter the log phase of their growth. On the 24th hour, the cells were treated with the solvents or CystiCran® solutions in concentrations ranging between 0.004% and 2% volume fraction (v/v) and incubated further for 72 h. The incubation periods are following the recommendations of the FDA guide for the use of ISO 10993-1 [1]. At the end of the incubation period, 10 µL of an MTT solution (5 mg/mL) were added to each well, and the plates were kept at 37 °C for 2 hours. Thereafter, the medium was aspirated, and the formed formazan crystals were dissolved in 100 μL/well of 2-propanol supplemented with 5% formic acid. The same solvent was used as a blank. […] The absorption was measured at 540 nm (reference filter at 690 nm) on a microplate reader ELx800 (BioTek Instruments, Inc., Winooski, VT, Winooski, VT, USA).
The IC50 values from the MTT assay were evaluated with a non-linear regression analysis (Curve fit, GraphPad Prizm 6.01 software, GraphPad Software Inc., San Diego, CA, USA) using sigmoidal concentration–response curves. […]

[2] = test system: S. epidermidis; parameters: method as in doi:10.5580/b43; conditions: in the presence of 6% solvent; cited from earlier work
[3] = test system: CCL-1 (transformed mouse fibroblasts, NCTC clone 929); assay: MTT dye-reduction cytotoxicity assay (ISO 10993-5); format: cell-based; conditions: for MTC (maximum tolerated concentration): at least 70% of cells viable
From the text: as §1
as §2, with “blank. Untreated cells were considered as a negative control.” for “blank.”
The IC50 values from the MTT assay were evaluated with a non-linear regression analysis (Curve fit, GraphPad Prizm 6.01 software, GraphPad Software Inc., San Diego, CA, USA) using sigmoidal concentration–response curves. The cell viability is presented as a percentage of the untreated control. At least four wells were seeded for every concentration. Three independent assays were performed (n = 3).

[4] = test system: Staphylococcus epidermidis, Salmonella paratyphi A, Vibrio cholerae, Shigella flexneri and Pseudomonas oleovorans; conditions: cited from earlier work
[5] = test system: breast cancer, mouse macrophage and human umbilical vein endothelial cells; parameters: method as in doi:10.17795/ajmb-33453; conditions: cited from earlier work
[6] = test system: P. aeruginosa ATCC 27853; assay: Dehydrogenase activity (DEHA) MTT test after BMD; format: cell-based, Pseudomonas aeruginosa; conditions: for DEHA (dehydrogenase activity): 24 h exposure, % against untreated control, ± SD, n = 3
Description: (§3) The cell dehydrogenase (DEHA, redox, metabolic) activity of all samples was measured at the end of the BMD assay, based on reducing the MTT dye to formazan by the membrane located bacterial enzyme NADH: ubiquinone reductase (H^+-translocation). The protocol of Wang et al. was applied after minor modifications. Briefly, each sample was incubated for 120 min at 37 °C with MTT at a final concentration of 0.5 mg/mL in the culture medium. The resulting non-soluble violet formazan crystals were dissolved with an equal volume of 2-propanol supplemented with 5% formic acid. The absorbance was measured at 550 nm against a blank solution containing the respective volumes of MHB and MTT.
(§4) The cell viability is presented as a percentage of the untreated control. At least four wells were seeded for every concentration. Three independent assays were performed (n = 3). […] The respiratory activity of the bacterial cultures was calculated as a percentage against the untreated control.

[7] = test system: S. pyogenes SAIMC 10535; assay: Dehydrogenase activity (DEHA) MTT test after BMD; format: cell-based, Streptococcus pyogenes; conditions: 24 h exposure; % against untreated control; ± SD; n = 3
Description: as §3, §4

[8] = test system: E. faecalis ATCC 29212; assay: Dehydrogenase activity (DEHA) MTT test after BMD; format: cell-based, Enterococcus faecalis; conditions: 24 h exposure; % against untreated control; ± SD; n = 3
Description: as §3, §4

For `CCO` [EtOH, ethanol], the “MTC (maximum tolerated concentration)” value [1] is given as > 2 % (v/v), the “IC50 (CI 95%)” value ([1]; 72 h incubation) is given as > 2 % (v/v) and the survival [2] is given as 26%. For the same compound, the “MTC (maximum tolerated concentration)” value ([3]; solvent alone, 72 h, n = 3) was 1.15 % (v/v), the growth inhibition ([4]; at a concentration of 1% v/v) was 19% and the “maximum tolerated concentration (MTC) / applicable concentration” value [5] was “up to 0.5 % v/v”.

In the case of “polyethylene glycol of average molecular weight 400 [PEG-400]”, the “DEHA (dehydrogenase activity)” value [6] is reported as 15.31 ± 0.04%, the “suppression of the respiratory activity” value ([6]; P. aeruginosa) is reported as roughly 85% and the “DEHA (dehydrogenase activity)” value [7] is reported as 23.66 ± 0.02%. The “MTC (maximum tolerated concentration)” value [1] was 0.89 % (v/v), the IC50 value ([3]; 72 h, equals 1.16% v/v) was 13 mg/mL and the “MTC (maximum tolerated concentration)” value ([3]; solvent alone, 72 h, n = 3) was 0.21 % (v/v). The “IC50 (CI 95%)” value ([3]; solvent alone, 72 h incubation, n = 3) was 1.16 % (v/v) and the “DEHA (dehydrogenase activity)” value [8] was 65.33 ± 0.06%.

For `C[S+](C)[O-]` [DMSO, dimethyl sulfoxide], the “DEHA (dehydrogenase activity)” value [6] is listed as 9.78 ± 0.01%, the “DEHA (dehydrogenase activity)” value [7] is listed as 27.27 ± 0.02% and the survival [2] is listed as 15%. The MTC [4] was 3 % volume fraction and the “DEHA (dehydrogenase activity)” value [8] was 29.86 ± 0.08%.
